# Assay results as given in patent US12421257B2, “Compositions and methods for inhibiting group II intron RNA” (YALE UNIVERSITY, priority 2018, dated 2025).
# “Also recorded” adds a separate entry of the source. Where two headings read alike, the source gives them in different places.
# How the values were obtained:
# [1] = tested on: ai5γ group II intron (D135 ribozyme); experiment: Fluorescent D135 ribozyme cleavage assay (IC50); type: biochemical, Saccharomyces cerevisiae
# Procedure, shortened: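 D135 ribozyme (20 nM) with double-labeled substrate 17/2 DL (20 nM) in 50 mM MOPS pH 7.0, 100 mM MgCl2, 0.5 M KCl; 19 inhibitor concentrations, 5 nM–1 mM, 10 min at 37 °C, EDTA quench, fluorescence read. Triplicates fit to 4-parameter logistic for IC50; mean±s.e.m.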
# ai5γ group II intron = experiment: Radioanalytic self-splicing assay of SE RNA (Ki); type: biochemical, Saccharomyces cerevisiae; details: 8 mM MgCl2, 100 mM KCl, pH 7.5, 30° C.
# Description: Internally labeled SE RNA (2 nM) was incubated with various concentrations of inhibitor compound under near-physiological conditions (in 50 mM MOPS, pH 7.5, 8 mM MgCl2, 100 mM KCl) at 30° C. Aliquots at different time points were quenched and analyzed on 5% denaturing polyacrylamide gel as previously described (Daniels et al., 1996, Journal of molecular biology, 256:31-49). Data were fit to a single-exponential equation to determine the first order rate constants (kobs). The latter were then plotted against the concentration of the inhibitor and fit to the equation for non-competitive inhibition to determine Ki values: kobs=kmax/(1+[I]/Ki), where kobs and kmax are the first order rate constants measured in the presence and in the absence of the inhibitor, respectively, [I] is the concentration of the inhibitor and Ki is the inhibition constant. Experiments were performed four times for API-014, three times for APY-090, Intronistat A, and Intronistat B and twice for the remaining compounds to ensure reproducibility. Data represent average±s.e.m.
# C. parapsilosis = experiment: MIC determination against C. parapsilosis; type: cell-based, Candida parapsilosis; details: Lodderomyces parapsilosis; RPMI-1640, 35° C. or 37° C., turbidity after 24 and 48 hours
# Procedure, shortened: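 Broth microdilution in RPMI-1640 with C. parapsilosis at 0.5×10^3 to 2.5×10^3 CFU/mL; test compounds 0.25-128 μg/ml final, 1% DMSO. Plates incubated at 35° C or 37° C, turbidity read visually at 24 and 48 h. MIC = lowest concentration without visible growth; triplicates.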
# HEK-293T cells = experiment: Cytotoxicity in HEK-293T cells (Cell Titer Glo); type: cell-based, human; details: Homo sapiens, cytotoxicity, 24 hours with compound, read-out: IC50 HEK-293
# [2] = tested on: C. parapsilosis COX1 group IIB intron; experiment: Group II intron splicing in C. parapsilosis by qRT-PCR; type: cell-based, Candida parapsilosis; details: 32 μg/mL
# S. cerevisiae = experiment: Yeast respiration assay in S. cerevisiae (MIC in YPD / YPGE); type: cell-based, Saccharomyces cerevisiae; details: Saccharomyces cerevisiae, 30° C.
# Description: Yeast respiration assays were conducted either in liquid YPD media (BD Bacto Yeast Extract, BD Bacto Peptone, 2% glucose) or in YPGE media (BD Bacto Yeast Extract, BD Bacto Peptone, 3% glycerol, 3% ethanol), essentially as described for the antifungal MIC assays (see below). To initiate these experiments, 100 μl of a fresh stock solution was prepared for each compound (3.2 mg/ml for Amphotericin B and 12.8 mg/ml for each test compounds) in DMSO. This concentrated stock solution was placed in the first well of 12-well row on a 96-well plate. The subsequent nine wells in this row contained 50 μl of DMSO for serial dilution. From the first well, 50 μl of the compound stock was withdrawn, transferred to the second well and mixed. This process was repeated from the second and subsequent wells, resulting in a 1:2 serial dilution of the stock into DMSO. Wells 11 and 12 contained DMSO only, to be used as no compound control and sterility control, with no inoculum added, respectively. After preparing this plate, 2.5 μl from each of the 12 wells was transferred to the wells of a separate 96-well plate, each of which contained 122.5 μl of YPD or YPGE medium, resulting in a set of serial dilutions of compound into growth media in a volume of 125 μl. Then 50 μl from each of these dilutions were transferred onto a third 96-well plate (the assay plate) and mixed with an equal volume (50 μl) of freshly prepared yeast inoculum in YPD or YPGE medium set to provide 0.5×10^3 to 2.5×10^3 colony forming units per 1 mL (wells 1-11), or YPD/YPGE alone (sterility control, well 12). The final compound concentration range of the assay was 0.25-128 μg/ml for test compounds and 0.0625-32 μg/ml for Amphotericin B. The final concentration of DMSO was 1%. Plates were incubated at 30° C. and visually analyzed for turbidity after 24 and 48 hours of incubation. The lowest compound concentration at which no growth was apparent is reported as the MIC (Table 1). All experiments were performed in triplicate.
"IC50 ([1]; D135 ribozyme cleavage of substrate 17/2 DL, 100 mM MgCl2, 500 mM KCl, 37° C., 10 minutes) [µM]",Ki (ai5γ group II intron) [µM],MIC (C. parapsilosis) [µg/mL],"MIC (S. cerevisiae; YPD medium, read-out: MIC in YPD (glucose)) [µg/mL]","MIC (S. cerevisiae; YPGE medium, read-out: MIC in YPGE (glycerol)) [µg/mL]",SMILES,"In vitro inhibitory activity, SAR statement (in words) ([1]; relative to parent scaffold)",IC50 (HEK-293T cells) [µg/mL],Splicing of C. parapsilosis COX1 in vivo (in words) [2]
> 100,> 1000,> 128,,,"COc1ccc(/C=C2\Oc3cc(O)cc(O)c3C2=O)cc1OC [APY-001, (Z)-2-(3,4-Dimethoxybenzylidene)-4,6-dihydroxybenzofuran-3(2H)-one]",nearly complete loss of activity,> 128,this effect was not observed; also recorded: inactive
,,16,> 128,64,"O=C1/C(=C/c2cc(O)c(O)c(O)c2)Oc2cccc(O)c21 [APY-019, (Z)-4-Hydroxy-2-(3,4,5-trihydroxybenzylidene)benzofuran-3(2H)-one]",,> 32,
